Data published in US10815275B2, “Antimicrobial peptoids with improved selectivity and use thereof” (priority 2018, dated 2020).
In brackets after ≈: the same amount, converted by molar mass. Read-outs that look alike come from different tables or passages of the source. Non-standard residues stand in square brackets, D forms with d. Residues, ends and D or L forms follow the SMILES beside them. Nspe = C[C@H](NCC(=O)O)c1ccccc1; Nphe = O=C(O)CNCc1ccccc1; Nlys = NCCCCNCC(=O)O

Experiments:
B. subtilis = assay type: cell-based; details: 18 h
Description: (§1) In order to measure antimicrobial activity of the peptoids, Gram-positive B. subtilis or Gram-negative E. coli strain DH5α was treated with Peptoid NOS. 1, 18 to 23, and the peptide Pexiganan, and minimum inhibitory concentrations were measured. Peptoid NOS. 1 and 2, and the peptide Pexiganan are already known antimicrobial peptoids and peptides, and were used for the purpose of making a comparison with novel peptoids in terms of antimicrobial activity.
(§2) Specifically, B. subtilis or E. coli DHS a was inoculated into LB liquid medium, and cultured at a temperature of 37° C. for 18 hours. Thereafter, the bacteria were diluted with LB medium so that each bacterial number was 2×10^5 colony-forming units (CFU) per 1 mL, and dispensed into 96-well microtiter plates at 100 μL each. The peptoid, which is 2-fold serially diluted using sterile water, was added to each well at 100 μL each. The plates were incubated at a temperature of 37° C. for 18 hours.
(§3) Thereafter, absorbance was measured at a wavelength of 600 nm using a microplate reader (Bio-Rad). The lowest peptoid concentration that completely suppresses growth of microorganisms was measured by a minimum inhibitory concentration (MIC), and the measurement results are shown in Table 12 below. Each of the minimum inhibitory concentration values was calculated as an average value of numerical values obtained through three independent experiments.

E. coli strain DH5α = assay: Antimicrobial activity of peptoids with altered cationic residues, MIC; assay type: cell-based; details: LB medium, 18 h
Description: as §1, §2, §3

in vitro = assay type: cell-based
Description: In order to determine whether the peptoids were cytotoxic against human cell lines, […] cell line (Korean Cell Line Bank) which is a human lung cell line was cultured in a DMEM (Dulbecco's modified Eagle's medium) culture solution containing 10% (v/v) fetal bovine serum (FBS) at 5% CO2 and a temperature of 37° C. 100 μL of DMEM medium was dispensed into each well of a 96-well microtiter plate so that the number of cells was 1.3×10^4, and then incubated overnight at a temperature of 37° C. in a 5% CO2 incubator. In this case, a DMEM medium was used as a negative control. Thereafter, the peptoid which is 2-fold serially diluted using sterile water was added to each well, and then incubated for 24 hours.
After incubation, 20 μL of an MTS solution [3-(4,5-dimethylthiazol-2-yl)-5-(3-carboxymethoxyphenyl)-2-(4-sulfophenyl)-2H-tetrazolium, inner salt; MTS] was added thereto and incubated at a temperature of 37° C. for 4 hours. Thereafter, % survival was calculated by measuring absorbance at a wavelength of 490 nm using an ELISA reader. The % survival was calculated as a percentage obtained by dividing the absorbance value for a well-treated with the peptoid by the absorbance value for a well containing control cells which had not been treated with the peptoid.

E. coli strain ATCC25922 = assay type: cell-based; details: for MBC E. coli: ATCC25922; for MIC E. coli: ATCC25922, 18 h
Description: (§4) In order to measure antimicrobial activity of the peptoids, Gram-positive S. aureus strain KCTC1621, or Gram-negative E. coli strain ATCC25922 was treated with the peptoids prepared in Preparation Example 1, and minimum inhibitory concentrations were measured. Peptoid NOS. 1 and 2 are already known peptoids and were used for the purpose of making a comparison with novel peptoids in terms of antimicrobial activity.
(§5) Specifically, S. aureus strain KCTC1621 or E. coli strain ATCC25922 was inoculated into Mueller Hinton Broth (MHB2) liquid medium on which cations were adjusted, cultured at a temperature of 37° C. for 18 hours, and then subcultured for 4 hours. Thereafter, the strains were diluted with MHB2 liquid medium containing 0.2% bovine serum albumin and 0.01% acetic acid so that each bacterial number was 2×10^5 colony-forming units (CFU) per 1 mL, and dispensed into 96-well microtiter plates at 100 μL each. A peptoid stock which is 40-fold more concentrated than a concentration to be tested was added to each well at 2.5 μL or lower so that the peptoid stock was 2-fold serially diluted using sterile water. Thereafter, the plates were incubated at a temperature of 37° C. for 18 hours.
as §3, with “concentration (MIC) and a minimum bactericidal concentration (MBC),” for “concentration (MIC),”, “Table 5” for “Table 12”, “the MIC” for “the minimum inhibitory concentration”

[1] = system: S. aureus strain KCTC1621; assay type: cell-based; details: for MBC S. aureus: KCTC1621; for MIC S. aureus: KCTC1621, 18 h
Description: as §4, §5
as §3, with “concentration (MIC) and a minimum bactericidal concentration (MBC),” for “concentration (MIC),”, “Table 5” for “Table 12”, “the MIC” for “the minimum inhibitory concentration”

red blood cells = assay: Hemolytic activity on red blood cells; assay type: cell-based, mouse
Description: In order to identify, through red blood cell hemolytic activity in mice, whether the peptoids synthesized in Preparation Example 1 are cytotoxic, red blood cells isolated from 10 mL of mouse blood were washed three times with phosphate-buffered saline (PBS, mixed solution of 35 mM phosphate buffer/150 mM NaCl, pH 7.4), and then centrifuged at a centrifugal force of 1,000 ×g for 10 minutes. A 10% (v/v) red blood cell solution diluted with PBS was dispensed into a 96-well microtiter plate at 150 μL each, and then a peptide solution was added at 50 μL each. Thereafter, the 96-well microtiter plate was incubated at a temperature of 37° C. for 1 hour.
The incubated 96-well microtiter plate was centrifuged at a centrifugal force of 1,000×g for 5 minutes. Thereafter, supernatant was taken at 100 μL each and transferred to a new 96-well microtiter plate. Then, absorbance at a wavelength of 540 nm was measured (Table 6).
In this case, a value obtained in a case of being treated with 0.1% (v/v) Triton X-100 was set as 100% hemolysis, and hemolytic activity (degree of cell destruction) of the peptoids was calculated using the following Equation 1. In the Equation 1, A is absorbance of the peptoid solution at a wavelength of 540 nm, B is absorbance of 0.1% Triton X-100 at a wavelength of 540 nm, and C is absorbance of the PBS solution at a wavelength of 540 nm. In this case, Peptoid NO. […] Degree of cell destruction (% hemolysis)=(A−C)/(B−C)[…] [Equation 1]
In Table 6, HD10 means a peptoid concentration which causes 10% hemolysis of red blood cells, and HD50 means a peptoid concentration which causes 50% hemolysis of red blood cells. In addition, Hmax is a hemolysis rate (%) at 200 μM which is the highest peptoid concentration used in the experiment.
Hemolytic activity of Peptoid NOS. 1, 18 to 23, and the peptide Pexiganan was measured in the same manner as in Experimental Example 2.

E. coli (63103 ESBL) = assay: MIC in multidrug-resistant bacteria panel, modified microdilution; assay type: cell-based; details: overnight, 37° C.
Description: (§6) Minimum inhibitory concentrations of the prepared peptoids for multidrug-resistant bacteria were measured using a modified microdilution method in Difco Mueller Hinton medium, and tests were done on a panel of bacterial pathogens which have resistance and tolerance against common antibiotics.
(§7) Briefly, a peptoid concentrate, which is 10-fold more concentrated than a final concentration, was serially diluted with a medium containing 0.2% bovine serum albumin and 0.01% acetic acid. 10 μL of the 10-fold concentrated peptoid concentrate and 90 μL of Muller Hinton medium were added to each well of a 96-well polypropylene microtitre plate. Bacteria were added to the plate so that a final concentration thereof was 2×10^5 CFU/mL, and then incubated overnight at a temperature of 37° C. The minimum inhibitory concentration was defined as a concentration at which no bacterial growth is observed.

P. aeruginosa (PA01) = assay: as above; assay type: cell-based; details: overnight, 37° C.
Description: as §6, §7

[2] = system: S. epidermidis (ET-024 MRSA); assay: as above; assay type: cell-based; details: overnight, 37° C.
Description: as §6, §7

E. coli = assay: Selectivity analysis, HD10 divided by MIC for E. coli; details: HD10 of Table 6 divided by MIC for E. coli ATCC25922
Description: In order to identify changes in selectivity depending on alteration of degree of folding in helical structure of peptoids, selectivity of each peptoid was calculated using the resultant values measured in the Experimental Examples 1 and 2. The selectivity was obtained by dividing the HD10 value by the minimum inhibitory concentration for E. coli (Table 8).

S. aureus (ATCC25923) = assay: MIC in multidrug-resistant bacteria panel, modified microdilution; assay type: cell-based; details: overnight, 37° C.
Description: as §6, §7

| MIC E. coli (E. coli strain ATCC25922) | MIC S. aureus [1] | Selectivity [HD10/MIC (E. coli)] (E. coli) | Structure (SMILES) | MIC B. subtilis (B. subtilis) | MIC E. coli (E. coli strain DH5α) | CC50 at 24 h (in vitro; human) | MBC E. coli (E. coli strain ATCC25922) | MBC S. aureus [1] | HD50 (red blood cells) | minimum inhibitory concentration E. coli (63103 ESBL) (E. coli (63103 ESBL)) | minimum inhibitory concentration P. aeruginosa (PA01) (P. aeruginosa (PA01)) | minimum inhibitory concentration S. epidermidis (ET-024 MRSA) [2] | HD10 (red blood cells) | minimum inhibitory concentration S. aureus (ATCC25923) (S. aureus (ATCC25923)) | CC50 at 24 h (in vitro; concentration indicating 50% survival, 24 h, MTS, read-out: LC50) |
| --- | --- | --- | --- | --- | --- | --- | --- | --- | --- | --- | --- | --- | --- | --- | --- |
|  |  |  | C[C@@H](c1ccccc1)N(CC(=O)N(CCCCN)CC(=O)N(CC(=O)N(CC(=O)N(CCCCN)CC(=O)N(CC(=O)N(CC(=O)N(CCCCN)CC(N)=O)[C@@H](C)c1ccccc1)[C@@H](C)c1ccccc1)[C@@H](C)c1ccccc1)[C@@H](C)c1ccccc1)C(=O)CN(C(=O)CNCCCCN)[C@@H](C)c1ccccc1 [compound 23] (H-[Nlys][Nspe][Nspe][Nlys][Nspe][Nspe][Nlys][Nspe][Nspe][Nlys]-NH2) | 0.8 µM (≈ 1.2 µg/mL) | 1.6 µM (≈ 2.4 µg/mL) | 80.5 µM |  |  |  |  |  |  |  |  |  |
| 25 µM (≈ 42.7 µg/mL) | 3.1 µM (≈ 5.29 µg/mL) | >8.0 | NCCCCNCC(=O)N(CC(=O)N(CC(=O)N(CCCCN)CC(=O)N(CC(=O)N(CC(=O)N(CCCCN)CC(=O)N(CC(=O)N(CC(=O)N(CCCCN)CC(=O)N(CC(=O)N(CC(N)=O)Cc1ccccc1)Cc1ccccc1)Cc1ccccc1)Cc1ccccc1)Cc1ccccc1)Cc1ccccc1)Cc1ccccc1)Cc1ccccc1 [compound 2] (H-[Nlys][Nphe][Nphe][Nlys][Nphe][Nphe][Nlys][Nphe][Nphe][Nlys][Nphe][Nphe]-NH2) |  |  |  | >25 µM | 6.3 µM (≈ 10.8 µg/mL) | >200/>200 | 12.5 | 6.3 | <0.8 to 0.8 |  |  |  |
| 12.5 µM (≈ 22 µg/mL) | 3.1 µM (≈ 5.47 µg/mL) | 4.9 | C[C@@H](c1ccccc1)N(CC(N)=O)C(=O)CN(C(=O)CN(CCCCN)C(=O)CN(Cc1ccccc1)C(=O)CN(Cc1ccccc1)C(=O)CN(CCCCN)C(=O)CN(Cc1ccccc1)C(=O)CN(Cc1ccccc1)C(=O)CN(CCCCN)C(=O)CN(C(=O)CN(C(=O)CNCCCCN)[C@@H](C)c1ccccc1)[C@@H](C)c1ccccc1)[C@@H](C)c1ccccc1 [compound 11] |  |  |  | 25 µM (≈ 44.1 µg/mL) | 6.3 µM (≈ 11.1 µg/mL) | > 200 | 6.3 | 6.3 | <0.8 to 0.8 | 61.6 | 3.1 |  |
|  |  |  | C[C@@H](c1ccccc1)N(CC(=O)N(CCCCN)CC(=O)N(CC(=O)N(CC(=O)N(CCCCN)CC(=O)N(CC(=O)N(CC(=O)N(CCCCN)CC(=O)N(CC(=O)N(CC(=O)N(CCCCN)CC(N)=O)[C@@H](C)c1ccccc1)[C@@H](C)c1ccccc1)[C@@H](C)c1ccccc1)[C@@H](C)c1ccccc1)[C@@H](C)c1ccccc1)[C@@H](C)c1ccccc1)C(=O)CN(C(=O)CNCCCCN)[C@@H](C)c1ccccc1 [compound 22] (H-[Nlys][Nspe][Nspe][Nlys][Nspe][Nspe][Nlys][Nspe][Nspe][Nlys][Nspe][Nspe][Nlys]-NH2) | 0.4 µM (≈ 0.779 µg/mL) |  |  |  |  |  |  |  |  | 19.5 |  | 10 µM |
|  |  |  | C[C@@H](c1ccc(F)cc1)N(CC(N)=O)C(=O)CN(C(=O)CN(CCCCN)C(=O)CN(C(=O)CN(C(=O)CN(CCCCN)C(=O)CN(C(=O)CN(C(=O)CN(CCCCN)C(=O)CN(C(=O)CN(C(=O)CNCCCCN)[C@@H](C)c1ccc(F)cc1)[C@@H](C)c1ccc(F)cc1)[C@@H](C)c1ccc(F)cc1)[C@@H](C)c1ccc(F)cc1)[C@@H](C)c1ccc(F)cc1)[C@@H](C)c1ccc(F)cc1)[C@@H](C)c1ccc(F)cc1 [compound 21] | 0.4 µM (≈ 0.785 µg/mL) |  | 9.5 µM |  |  | <6.25/<6.25 |  |  |  | <6.25/<6.25 |  |  |
| 25 µM (≈ 43.4 µg/mL) | 3.1 µM (≈ 5.38 µg/mL) | 4.8 | C[C@@H](c1ccccc1)N(CC(=O)N(CCCCN)CC(=O)N(CC(=O)N(CC(=O)N(CCCCN)CC(=O)N(CC(=O)N(CC(=O)N(CCCCN)CC(=O)N(CC(=O)N(CC(N)=O)Cc1ccccc1)Cc1ccccc1)Cc1ccccc1)Cc1ccccc1)Cc1ccccc1)Cc1ccccc1)C(=O)CN(C(=O)CNCCCCN)[C@@H](C)c1ccccc1 [compound 17] (H-[Nlys][Nspe][Nspe][Nlys][Nphe][Nphe][Nlys][Nphe][Nphe][Nlys][Nphe][Nphe]-NH2) |  |  |  | 25 µM (≈ 43.4 µg/mL) | 3.1 µM (≈ 5.38 µg/mL) | > 200 |  | 6.3 | <0.8 to 0.8 |  |  |  |
|  |  |  | C[C@@H](c1ccccc1)N(CC(N)=O)C(=O)CN(C(=O)CN(CCCCN)C(=O)CN(C(=O)CN(C(=O)CN(CCCCN)C(=O)CN(C(=O)CN(C(=O)CNCCCCN)[C@@H](C)c1ccccc1)[C@@H](C)c1ccccc1)[C@@H](C)c1ccccc1)[C@@H](C)c1ccccc1)[C@@H](C)c1ccccc1 [compound 18] (H-[Nlys][Nspe][Nspe][Nlys][Nspe][Nspe][Nlys][Nspe][Nspe]-NH2) | 1.6 µM (≈ 2.19 µg/mL) | 3.1 µM (≈ 4.24 µg/mL) | 40 µM |  |  |  |  |  |  |  |  |  |
